Laboratory results taken from US20240208961A1, “EIF4E INHIBITORS AND USES THEREOF” (PIC Therapeutics, Inc., priority 2022, published 2024).
Values joined by “and” are separate entries in the source; they are usually repeats but may differ in a detail not shown here. Identical values can stand only once. Like-named read-outs stand apart in the source and are kept apart here.

Legend:
NCIH510A = assay: Cell viability assay, suspension cell line, 5 day Alamar Blue (Example 8): NCIH510A; type: cell-based; conditions: Homo sapiens, NCI-H510A, 120 h, Small Cell Lung Cancer Cell Line
Experimental: (§1) Cell viability assays were performed on certain compounds of the disclosure, according to the following procedure.
(§2) Cell line specific media conditions used:
The procedure for suspension cell line compound screening was as follows:
Day 1: Cell Seeding and Compound Dosing
(§3) • Cells were seeded 2×10^5 in 96-well cell culture treated tissue culture plates: 87.5 μL/well; MM.1 S, MM,1R, NCIH510A. • 5-fold serial dilution (8 point) of each compound in DMSO 0-25 mM in compound storage plates was prepared (stored at −80° C. if not to be used immediately). • Cells were rinsed with 1% FBS Media (appropriate to cell line as described above) and replaced with 87.5 μL media prior to dosing. • DMSO compound dilution series was diluted in 1% FBS media (appropriate to cell line as described above)—2 μL in 248 μL to give an 8× final concentration. • Cells were dosed 12.5 μL/well in triplicate to give final dose curved on cells 0-25 μM. • Media blank 100 μL/well×8 was set up. • All plates were incubated at 37° C.
Day 6: 5 Day Viability Assay
(§4) • Alamar Blue viability reagent was added (10 μL per well) and incubated for 3 hours at 37° C. prior to fluorescence detection (Ex560 nm/Em590 nm) on a Varioskan Lux multimode plate reader.
(§5) Results from cell viability assays are summarized in Table 23, wherein A represents IC50≤1 μM; B represents 1 μM<IC50≤8 μM; and C represents IC50>8 μM. Blank cells indicate that the compound was not tested in a particular assay.

[1] = Pharmacokinetic studies of certain compounds in female Balb/c mice (Example 5); type: in vivo
Experimental: Pharmacokinetic studies were performed using Balb/c mice, 15-20 g, 6-9 weeks, female, N=9, purchased from Jihui Laboratory Animal Co. LTD. For compound I-29, Balb/c mice, 19-21 g, 9-11 weeks, female, N=9, were used. The mice were fasted overnight and fed at 4 h post dosing.
Animals were dosed via oral gavage (PO) or tail vein injection (IV) with compound. Sampling occurred at 0.083, 0.25, 0.5, 1, 2, 4, 8, and 24 h post dose (8 time points). The animals were restrained manually at the designated time points. Approx. […] of blood was taken from the animals via facial vein for semi-serial bleeding into tubes with K2EDTA. Blood samples were put on ice and centrifuged at 4° C. (2000 g, 5 min) to obtain plasma within 15 min after sample collection. Plasma samples were stored in dry ice temporarily and at approximately −70° C. until analysis.
For oral gavage, the compound was dosed as a suspension in 1% sodium carboxymethyl cellulose (CMC) and 0.2% Tween 80 in water. For 23.8 mg/kg and 30 mg/kg doses, 3 mg/mL was used; for 50 mg/kg doses, 5 mg/mL was used; and for 100 mg/kg doses, 10 mg/mL was used.
For IV administration, the compound was dosed as a solution in 5% DMSO, 5% Solutol HS15 and 90% saline. For 1 mg/kg and 1.48 mg/kg doses, 0.2 mg/mL was used.
Plasma samples were analyzed using LC-MS using a calibration curve of known concentrations.
The results of these studies are summarized in Tables 11-21 below and in FIGS. 2-8. […] BQL=below quantifiable limit for compound in female Balb/c mouse plasma samples. NA=not available. PK parameters were estimated by non-compartmental model using WinNonlin 8.2. If the adjusted rsq (linear regression coefficient of the concentration value on the terminal phase) was less than 0.9, T1/2 might not have been accurately estimated. F value was determined by the following equation: • If AUClast/AUCINF>80%:
F=(AUCINF-EX×DOSEIV)/(AUCINF-IV×DOSEEX)[…] • If AUClast/AUCINF<80% or AUCINF not available:
F=(AUClast-EX×DOSEIV)/(AUClast-IV×DOSEEX)*1000

T47D = assay: Cell viability assay, adherent cell line, 5 day Alamar Blue (Example 8): T47D; type: cell-based; conditions: Homo sapiens, 120 h, Breast Cancer Cell Viability
Experimental: as §1, §2
The procedure for adherent cell line compound screening was as follows:
• Cells were seeded in 96-well cell culture treated tissue culture plates: ZR-75-1, NIHOVCAR3, T47D, and LOVO cells 4000 cells/well; and HPAFII 3000 cell/well
Day 3: Compound Dilution and Dosing
as §3, with “•” for “• Cells were seeded 2×10^5 in 96-well cell culture treated tissue culture plates: 87.5 μL/well; MM.1 S, MM,1R, NCIH510A. •”, “dosing. HPAFII was screened in normal 10% FBS Media.” for “dosing.”
Day 8: 5 Day Viability Assay
as §4, §5

[2] = I-3 IV 1 mg/kg, 24 hr, BQL = below quantifiable limit of 1.00 ng/mL

## CC(C)Cc1sc(Nc2ncc(-c3cccs3)cc2C(=O)O)nc1C1CCCCC1 [Compound I-3]
NCIH510A
  IC50: 1 to 8 µM
[1]; I-3 IV 1 mg/kg, 0.083 hr, 1 mg/kg
  Plasma concentration Individual: 1790 ng/mL and 2660 ng/mL
[1]; I-3 IV 1 mg/kg, 0.25 hr, 1 mg/kg
  Plasma concentration Individual: 633 ng/mL and 539 ng/mL
[1]; I-3 IV 1 mg/kg, 0.5 hr, 1 mg/kg
  Plasma concentration Individual: 292 ng/mL and 352 ng/mL
[1]; I-3 IV 1 mg/kg, 1 hr, 1 mg/kg
  Plasma concentration Individual: 101 ng/mL and 116 ng/mL
[1]; I-3 IV 1 mg/kg, 2 hr, 1 mg/kg
  Plasma concentration Individual: 35.6 ng/mL and 28.1 ng/mL
[1]; I-3 IV 1 mg/kg, 4 hr, 1 mg/kg
  Plasma concentration Individual: 7.05 ng/mL and 7.52 ng/mL and 21.3 ng/mL
[1]; I-3 IV 1 mg/kg, 8 hr, BQL = below quantifiable limit of 1.00 ng/mL, 1 mg/kg
  Plasma concentration Individual: BQL
[1]; [2]
  Plasma concentration Individual: BQL
  Plasma concentration Mean: BQL
[1]; I-3 PO 30 mg/kg vs IV 1 mg/kg
  F: 36.0%
[1]; I-3 PO 30 mg/kg, 0.083 hr, 30 mg/kg
  Plasma concentration Individual: 69.9 ng/mL and 44.9 ng/mL
[1]; I-3 PO 30 mg/kg, 0.25 hr, 30 mg/kg
  Plasma concentration Individual: 420 ng/mL and 461 ng/mL
[1]; I-3 PO 30 mg/kg, 0.5 hr, 30 mg/kg
  Plasma concentration Individual: 1920 ng/mL and 1840 ng/mL
[1]; I-3 PO 30 mg/kg, 1 hr, 30 mg/kg
  Plasma concentration Individual: 1520 ng/mL and 1760 ng/mL
[1]; I-3 PO 30 mg/kg, 2 hr, 30 mg/kg
  Plasma concentration Individual: 1530 ng/mL and 1800 ng/mL
[1]; I-3 PO 30 mg/kg, 4 hr, 30 mg/kg
  Plasma concentration Individual: 896 ng/mL and 860 ng/mL
[1]; I-3 PO 30 mg/kg, 8 hr, 30 mg/kg
  Plasma concentration Individual: 124 ng/mL and 186 ng/mL
[1]; I-3 PO 30 mg/kg, 24 hr, 30 mg/kg
  Plasma concentration Individual: 10.6 ng/mL and 4.10 ng/mL and 3.10 ng/mL
[1]; female, Balb/c, mouse, plasma, iv, 1 mg/kg, I-3 IV 1 mg/kg, 0.083 hr, read-out: Plasma concentration Individual
  concentration at 0.083 hr: 1910 ng/mL
[1]; female, Balb/c, mouse, plasma, iv, 1 mg/kg, I-3 IV 1 mg/kg, 0.083 hr, read-out: Plasma concentration Mean
  concentration at 0.083 hr: 2120 ng/mL
[1]; female, Balb/c, mouse, plasma, iv, 1 mg/kg, I-3 IV 1 mg/kg, 0.25 hr, read-out: Plasma concentration Individual
  concentration at 0.25 hr: 511 ng/mL
[1]; female, Balb/c, mouse, plasma, iv, 1 mg/kg, I-3 IV 1 mg/kg, 0.25 hr, read-out: Plasma concentration Mean
  concentration at 0.25 hr: 561 ng/mL
[1]; female, Balb/c, mouse, plasma, iv, 1 mg/kg, I-3 IV 1 mg/kg, 0.5 hr, read-out: Plasma concentration Individual
  concentration at 0.5 h: 246 ng/mL
[1]; female, Balb/c, mouse, plasma, iv, 1 mg/kg, I-3 IV 1 mg/kg, 0.5 hr, read-out: Plasma concentration Mean
  concentration at 0.5 h: 297 ng/mL
[1]; female, Balb/c, mouse, plasma, iv, 1 mg/kg, I-3 IV 1 mg/kg, 1 hr, read-out: Plasma concentration Individual
  concentration at 1 h: 111 ng/mL
[1]; female, Balb/c, mouse, plasma, iv, 1 mg/kg, I-3 IV 1 mg/kg, 1 hr, read-out: Plasma concentration Mean
  concentration at 1 h: 109 ng/mL
[1]; female, Balb/c, mouse, plasma, iv, 1 mg/kg, I-3 IV 1 mg/kg, 2 hr, read-out: Plasma concentration Individual
  concentration at 2 h: 28.7 ng/mL
[1]; female, Balb/c, mouse, plasma, iv, 1 mg/kg, I-3 IV 1 mg/kg, 2 hr, read-out: Plasma concentration Mean
  concentration at 2 h: 30.8 ng/mL
[1]; female, Balb/c, mouse, plasma, iv, 1 mg/kg, I-3 IV 1 mg/kg, 4 hr, read-out: Plasma concentration Mean
  concentration at 4 h: 12 ng/mL
[1]; female, Balb/c, mouse, plasma, iv, 1 mg/kg, I-3 IV 1 mg/kg, 8 hr, BQL = below quantifiable limit of 1.00 ng/mL, read-out: Plasma concentration Individual
  concentration at 8 h: 1.62 ng/mL
[1]; female, Balb/c, mouse, plasma, iv, 1 mg/kg, I-3 IV 1 mg/kg, 8 hr, BQL = below quantifiable limit of 1.00 ng/mL, read-out: Plasma concentration Mean
  concentration at 8 h: 1.62 ng/mL
[1]; female, Balb/c, mouse, plasma, po, 30 mg/kg, I-3 PO 30 mg/kg, 0.083 hr, read-out: Plasma concentration Individual
  concentration at 0.083 hr: 56.7 ng/mL
[1]; female, Balb/c, mouse, plasma, po, 30 mg/kg, I-3 PO 30 mg/kg, 0.083 hr, read-out: Plasma concentration Mean
  concentration at 0.083 hr: 57.2 ng/mL
[1]; female, Balb/c, mouse, plasma, po, 30 mg/kg, I-3 PO 30 mg/kg, 0.25 hr, read-out: Plasma concentration Individual
  concentration at 0.25 hr: 453 ng/mL
[1]; female, Balb/c, mouse, plasma, po, 30 mg/kg, I-3 PO 30 mg/kg, 0.25 hr, read-out: Plasma concentration Mean
  concentration at 0.25 hr: 445 ng/mL
[1]; female, Balb/c, mouse, plasma, po, 30 mg/kg, I-3 PO 30 mg/kg, 0.5 hr, read-out: Plasma concentration Individual
  concentration at 0.5 hr: 1950 ng/mL
[1]; female, Balb/c, mouse, plasma, po, 30 mg/kg, I-3 PO 30 mg/kg, 0.5 hr, read-out: Plasma concentration Mean
  concentration at 0.5 hr: 1900 ng/mL
[1]; female, Balb/c, mouse, plasma, po, 30 mg/kg, I-3 PO 30 mg/kg, 1 hr, read-out: Plasma concentration Individual
  concentration at 1 hr: 1490 ng/mL
[1]; female, Balb/c, mouse, plasma, po, 30 mg/kg, I-3 PO 30 mg/kg, 1 hr, read-out: Plasma concentration Mean
  concentration at 1 hr: 1590 ng/mL
[1]; female, Balb/c, mouse, plasma, po, 30 mg/kg, I-3 PO 30 mg/kg, 2 hr, read-out: Plasma concentration Individual
  concentration at 2 hr: 1750 ng/mL
[1]; female, Balb/c, mouse, plasma, po, 30 mg/kg, I-3 PO 30 mg/kg, 2 hr, read-out: Plasma concentration Mean
  concentration at 2 hr: 1690 ng/mL
[1]; female, Balb/c, mouse, plasma, po, 30 mg/kg, I-3 PO 30 mg/kg, 4 hr, read-out: Plasma concentration Individual
  concentration at 4 hr: 991 ng/mL
[1]; female, Balb/c, mouse, plasma, po, 30 mg/kg, I-3 PO 30 mg/kg, 4 hr, read-out: Plasma concentration Mean
  concentration at 4 hr: 916 ng/mL
[1]; female, Balb/c, mouse, plasma, po, 30 mg/kg, I-3 PO 30 mg/kg, 8 hr, read-out: Plasma concentration Individual
  concentration at 8 hr: 182 ng/mL
[1]; female, Balb/c, mouse, plasma, po, 30 mg/kg, I-3 PO 30 mg/kg, 8 hr, read-out: Plasma concentration Mean
  concentration at 8 hr: 164 ng/mL
[1]; female, Balb/c, mouse, plasma, po, 30 mg/kg, I-3 PO 30 mg/kg, 24 hr, read-out: Plasma concentration Mean
  concentration at 24 hr: 5.93 ng/mL
[1]; mouse, plasma, I-3 IV 1 mg/kg
  AUC(0-inf): 834 ng·h/mL
  AUC(0-t): 831 ng·h/mL
  C0: 4100 ng/mL
  MRT inf: 0.58 h
  MRT last: 0.542 h
  clearance: 20 mL/min/kg
  half-life: 84.6 min
[1]; mouse, plasma, I-3 IV 1 mg/kg, read-out: Vss
  Vd: 0.695 L/kg
[1]; mouse, plasma, I-3 PO 30 mg/kg
  AUC(0-inf): 9000 ng·h/mL
  AUC(0-t): 8980 ng·h/mL
  Cmax: 1900 ng/mL
  MRT inf: 3.62 h
  MRT last: 3.55 h
  Tmax: 30 min
  half-life: 166 min
T47D
  IC50: 1 to 8 µM
